Where two headings read alike, the source gives them in different places.
Target: HPK full length, T165E S171E (Homo sapiens (Human), UniProt Q92918, S171E/T165E)
Assay: HPK1-FL HTRF enzymatic assay ("HTRF")
Format: biochemical
Conditions: ATP 1 mM
Outline: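 Full-length HPK1 (T165E/S171E) was preincubated 30 min with compound, then reacted 60 min with biotin-SLP-76 and 1 mM ATP. Phospho-SLP-76 was detected by HTRF (Eu-anti-pSLP76 antibody, SA-XL665) after a further 60 min.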

HPK full length, T165E S171E, sequence (Q92918 whole entry T165E/S171E, looked up): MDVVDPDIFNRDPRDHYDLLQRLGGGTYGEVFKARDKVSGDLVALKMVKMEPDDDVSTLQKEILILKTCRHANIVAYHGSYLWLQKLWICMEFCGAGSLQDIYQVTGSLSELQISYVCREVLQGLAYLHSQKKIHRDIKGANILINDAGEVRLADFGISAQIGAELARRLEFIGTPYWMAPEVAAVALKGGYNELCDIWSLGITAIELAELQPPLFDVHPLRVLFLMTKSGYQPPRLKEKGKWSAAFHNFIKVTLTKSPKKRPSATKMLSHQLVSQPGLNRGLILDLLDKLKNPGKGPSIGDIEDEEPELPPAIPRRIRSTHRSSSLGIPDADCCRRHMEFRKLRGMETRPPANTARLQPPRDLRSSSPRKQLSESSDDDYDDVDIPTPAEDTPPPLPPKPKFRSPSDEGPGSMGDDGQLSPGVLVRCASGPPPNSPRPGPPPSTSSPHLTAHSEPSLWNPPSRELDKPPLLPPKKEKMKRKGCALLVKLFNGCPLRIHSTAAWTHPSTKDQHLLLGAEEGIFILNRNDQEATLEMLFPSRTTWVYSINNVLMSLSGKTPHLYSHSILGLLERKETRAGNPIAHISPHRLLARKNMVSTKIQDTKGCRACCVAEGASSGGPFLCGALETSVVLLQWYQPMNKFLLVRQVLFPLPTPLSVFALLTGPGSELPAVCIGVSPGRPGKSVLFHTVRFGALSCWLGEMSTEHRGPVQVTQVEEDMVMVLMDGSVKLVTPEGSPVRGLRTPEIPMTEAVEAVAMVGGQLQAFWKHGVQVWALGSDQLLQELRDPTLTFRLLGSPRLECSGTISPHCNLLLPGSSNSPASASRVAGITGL

Compound	Ki (read-out: HPK1 Ki) [nM]	Ki (HPK1 Ki) [nM]
Cc1c(-c2cc3cc(NC(=O)OC4C5CC4CN(C)C5)ncc3c(N)c2F)cnc2c1NCCO2 (stereo not drawn) [Compound 431, 3-Methyl-3-azabicyclo[3.1.1]heptan-6-yl (8-amino-7-fluoro-6-(8-methyl-2,3-dihydro-1H-pyrido[2,3-b][1,4]oxazin-7-yl)isoquinolin-3-yl)carbamate]	2.3	–
Cc1c(-c2cc3cc(NC(=O)O[C@@H]4CCN(C5COC5)C[C@@H]4F)ncc3c(N)c2F)cnc2c1NCCO2 [Compound 445c, (3S,4R)-3-Fluoro-1-(oxetan-3-yl)piperidin-4-yl (8-amino-7-fluoro-6-(8-methyl-2,3-dihydro-1H-pyrido[2,3-b][1,4]oxazin-7-yl)isoquinolin-3-yl)carbamate]	0.015	–
Cc1c(-c2cc3cc(NC(=O)O[C@H]4C[C@@H]([C@H](C)O)C4)ncc3c(N)c2F)cnc2c1NCCO2 (single isomer, unassigned) [Compound 573a]	0.015	–
Cc1c(-c2cc3cc(NC(=O)O[C@H]4COC[C@@H]4C)ncc3c(N)c2F)cnc2c1NC[C@@H](F)O2 (single isomer, unassigned) [Compound 567b]	0.119	–
Cc1c(-c2cc3cc(NC(=O)SC4CCOCC4)ncc3c(N)c2F)cnc2c1NCCO2 [Compound 601, S-Tetrahydropyran-4-yl N-[8-amino-7-fluoro-6-(8-methyl-2,3-dihydro-1H-pyrido[2,3-b][1,4]oxazin-7-yl)-3-isoquinolyl]carbamothioate]	< 0.013	–
CO[C@H]1C[C@H](NC(=O)Nc2cc3cc(-c4cnc5c(c4C)NCCO5)c(F)c(N)c3cn2)C1 [Compound 733a, 1-[8-Amino-7-fluoro-6-(8-methyl-2,3-dihydro-1H-pyrido[2,3-b][1,4]oxazin-7-yl)-3-isoquinolyl]-3-(3-methoxycyclobutyl)urea]	< 0.013	–
Cc1c(-c2cc3cc(NC(=O)O[C@H]4C[C@@H](O)C4)ncc3c(N)c2F)cnc2c1NC[C@H]1C[C@@H]21 (single isomer, unassigned) [Compound 584b]	2.1	–
CO[C@H]1CCC[C@H]1NC(=O)Nc1cc2cc(-c3cnc4c(c3C)NCCO4)c(F)c(N)c2cn1 (single isomer, unassigned) [Compound 729b]	0.015	–
Cc1c(-c2cc3cc(NC(=O)O[C@H](C)CO)ncc3c(N)c2F)cnc2c1NCCO2 (single isomer, unassigned) [Compound 530a]	0.26	–
Cc1c(-c2cc3cc(NC(=O)N[C@H]4CC[C@@H](C#N)C4)ncc3c(N)c2F)cnc2c1NCCO2 (single isomer, unassigned) [Compound 726b]	0.016	–
Cc1c(-c2cc3cc(NC(=O)N(C)C4CCC4)ncc3c(N)c2F)cnc2c1NCCO2 [Compound 752, 3-(8-Amino-7-fluoro-6-(8-methyl-2,3-dihydro-1H-pyrido[2,3-b][1,4]oxazin-7-yl)isoquinolin-3-yl)-1-cyclobutyl-1-methylurea]	0.52	–
Cc1c(-c2cc3cc(NC(=O)O[C@H]4CCOC4)ncc3c(N)c2F)cnc2c1NCCO2 [Compound 403b, (S)-Tetrahydrofuran-3-yl (8-amino-7-fluoro-6-(8-methyl-2,3-dihydro-1H-pyrido[2,3-b][1,4]oxazin-7-yl)isoquinolin-3-yl)carbamate]	–	0.064
Cc1c(N)cncc1-c1cc2cc(NC(=O)NC3CCCC3)ncc2c(N)c1F [Compound 749, 1-(8-Amino-6-(5-amino-4-methylpyridin-3-yl)-7-fluoroisoquinolin-3-yl)-3-cyclopentylurea]	0.102	–
Cc1c(-c2cc3cc(NC(=O)O[C@H]4C[C@@H](N5CC(F)C5)C4)ncc3c(N)c2F)cnc2c1NCCO2 [Compound 525a, (1s,3s)-3-(3-Fluoroazetidin-1-yl)cyclobutyl (8-amino-7-fluoro-6-(8-methyl-2,3-dihydro-1H-pyrido[2,3-b][1,4]oxazin-7-yl)isoquinolin-3-yl)carbamate]	< 0.013	–
Cc1c(-c2cc3cc(NC(=O)N[C@@H]4CCOC4)ncc3c(N)c2F)cnc2c1NCCC2 [Compound 719a, (R)-1-(8-Amino-7-fluoro-6-(4-methyl-5,6,7,8-tetrahydro-1,5-naphthyridin-3-yl)isoquinolin-3-yl)-3-(tetrahydrofuran-3-yl)urea]	0.016	–
CC(=O)N[C@H]1CCCC[C@@H]1OC(=O)Nc1cc2cc(-c3cnc4c(c3C)NCCO4)c(F)c(N)c2cn1 (single isomer, unassigned) [Compound 414a]	0.59	–
Cc1c(-c2cc3cc(NC(=O)O[C@@H]4COC[C@H]4C)ncc3c(N)c2F)cnc2c1NCCO2 (single isomer, unassigned) [Compound 441a]	< 0.013	–
Cc1c(-c2cc3cc(NC(=O)O[C@@H]4CCO[C@H]4C)ncc3c(N)c2F)cnc2c1NCCO2 (racemic) [Compound 510a, (2S,3R)-2-methyltetrahydrofuran-3-yl (8-amino-7-fluoro-6-(8-methyl-2,3-dihydro-1H-pyrido[2,3-b][1,4]oxazin-7-yl)isoquinolin-3-yl)carbamate]	0.395	–

Compound	Ki (read-out: HPK1 Ki) [nM]	Ki (HPK1 Ki) [nM]
Cc1c(-c2cc3cc(NC(=O)N[C@@H]4CCOC4)ncc3c(N)c2F)cnc2c1NCCO2 (single isomer, unassigned) [Compound 722a]	< 0.013	–
Cc1c(-c2cc3cc(NC(=O)O[C@H]4COC[C@H]4C)ncc3c(N)c2F)cnc2c1NCCO2 (single isomer, unassigned) [Compound 441c]	0.16	–
Cc1c(-c2cc3cc(NC(=O)O[C@H]4C[C@H](O)C4)ncc3c(N)c2F)cnc2c1NCCO2 [Compound 485b, (1r,3r)-3-Hydroxycyclobutyl (8-amino-7-fluoro-6-(8-methyl-2,3-dihydro-1H-pyrido[2,3-b][1,4]oxazin-7-yl)isoquinolin-3-yl)carbamate]	< 0.013	–
Cc1c(N)cncc1-c1cc2cc(NC(=O)O[C@H]3COC[C@@H]3C)ncc2c(N)c1F (single isomer, unassigned) [Compound 544a]	0.138	–
Cc1c(-c2cc3cc(NC(=O)O[C@@H]4[C@@H]5COC[C@@H]54)ncc3c(N)c2F)cnc2c1NCCO2 [Compound 543b, (1R,5S,6r)-3-oxabicyclo[3.1.0]hexan-6-yl (8-amino-7-fluoro-6-(8-methyl-2,3-dihydro-1H-pyrido[2,3-b][1,4]oxazin-7-yl)isoquinolin-3-yl)carbamate]	0.083	–
Cc1c(-c2cc3cc(NC(=O)N[C@H]4CCN(C)C[C@@H]4F)ncc3c(N)c2F)cnc2c1NCCO2 (single isomer, unassigned) [Compound 703b]	< 0.013	–
Cc1c(-c2cc3cc(NC(=O)OC4C5COCC4CN(C(C)C)C5)ncc3c(N)c2F)cnc2c1NCCO2 (single isomer, unassigned) [Compound 506a]	< 0.013	–
Cc1c(-c2cc3cc(NC(=O)O[C@H]4C[C@@H](N5CC(F)(F)C5)C4)ncc3c(N)c2F)cnc2c1NCCO2 [Compound 513a, (1s, 3s)-3-(3,3-Difluoroazetidin-1-yl)cyclobutyl (8-amino-7-fluoro-6-(8-methyl-2,3-dihydro-1H-pyrido[2,3-b][1,4]oxazin-7-yl)isoquinolin-3-yl)carbamate]	0.022	–
Cc1c(-c2cc3cc(NC(=O)NC4CC(F)(F)C4)ncc3c(N)c2F)cnc2c1NCCO2 [Compound 714, 1-(8-Amino-7-fluoro-6-(8-methyl-2,3-dihydro-1H-pyrido[2,3-b][1,4]oxazin-7-yl)isoquinolin-3-yl)-3-(3,3-difluorocyclobutyl)urea]	< 0.013	–
Cc1c(-c2cc3cc(NC(=O)O[C@@H]4CCOC4)ncc3c(N)c2F)cnc2c1NC[C@H](F)O2 (single isomer, unassigned) [Compound 518b]	0.044	–
Cc1c(-c2cc3cc(NC(=O)O[C@@H]4C[C@](C)(O)[C@@H]4C)ncc3c(N)c2F)cnc2c1NCCO2 [Compound 526a, (1R,2R,3S)-3-Hydroxy-2,3-dimethylcyclobutyl (8-amino-7-fluoro-6-(8-methyl-2,3-dihydro-1H-pyrido[2,3-b][1,4]oxazin-7-yl)isoquinolin-3-yl)carbamate]	0.015	–
Cc1c(-c2cc3cc(NC(=O)O[C@@H]4CCOC4)ncc3c(N)c2F)cnc2c1[C@H](O)CC2 [Compound 548b, (R)-tetrahydrofuran-3-yl (8-amino-7-fluoro-6-((R)-5-hydroxy-4-methyl-6,7-dihydro-5H-cyclopenta[b]pyridin-3-yl)isoquinolin-3-yl)carbamate]	93	–
Cc1c(-c2cc3cc(NC(=O)N[C@H]4CCC[C@H]4O)ncc3c(N)c2F)cnc2c1NCCO2 (relative stereo) [Compound 728a, 1-[8-Amino-7-fluoro-6-(8-methyl-2,3-dihydro-1H-pyrido[2,3-b][1,4]oxazin-7-yl)-3-isoquinolyl]-3-[(1S,2R)-2-hydroxycyclopentyl]urea]	< 0.013	–
CC(=O)N1CC(OC(=O)Nc2cc3cc(-c4cnc5c(c4C)NCCC5)c(F)c(N)c3cn2)C1 [Compound 429, 1-Acetylazetidin-3-yl (8-amino-7-fluoro-6-(4-methyl-5,6,7,8-tetrahydro-1,5-naphthyridin-3-yl)isoquinolin-3-yl)carbamate formic acid]	0.028	–
Cc1c(-c2cc3cc(NC(=O)O[C@@H]4CCOC4)ncc3c(N)c2F)cnc2c1[C@@H](O)CC2 [Compound 548a, (R)-tetrahydrofuran-3-yl (8-amino-7-fluoro-6-((S)-5-hydroxy-4-methyl-6,7-dihydro-5H-cyclopenta[b]pyridin-3-yl)isoquinolin-3-yl)carbamate]	–	1.7
Cc1c(-c2cc3cc(NC(=O)O[C@@H]4Cc5ncnn5C4)ncc3c(N)c2F)cnc2c1NCCO2 (single isomer, unassigned) [Compound 578a]	0.028	–
Cc1c(-c2cc3cc(NC(=O)OC4CC(O)C4)ncc3c(N)c2F)cnc2c1NC[C@H](C)C2 (stereo partly drawn) [Compound 560b, (1s,3s)-3-Hydroxycyclobutyl (8-amino-6-((R)-4,7-dimethyl-5,6,7,8-tetrahydro-1,5-naphthyridin-3-yl)-7-fluoroisoquinolin-3-yl)carbamate]	0.32	–
Cc1c(-c2cc3cc(NC(=O)NC4CCCC4)ncc3c(N)c2F)cnc2c1NCCO2 [Compound 706, 1-(8-Amino-7-fluoro-6-(8-methyl-2,3-dihydro-1H-pyrido[2,3-b][1,4]oxazin-7-yl)isoquinolin-3-yl)-3-cyclopentylurea]	< 0.013	–
